In ChEMBL document CHEMBL4732086, “Targeting nuclear protein TDP-43 by cell division cycle kinase 7 inhibitors: A new therapeutic approach for amyotrophic lateral sclerosis” (Eur J Med Chem, 2021):
Calls of active or inactive are those of the source. No cut-off for these calls is given here.

Legend:
[1] = target: T1, Aurora kinase A (Homo sapiens) (UniProt O14965); experiment: Inhibition of recombinant human full length AURKA expressed in baculovirus expression system using Ser/Thr-01 peptide as substrate at 10 uM after 1 hr in presence of ATP by Z'LYTE assay
T1 sequence (whole entry): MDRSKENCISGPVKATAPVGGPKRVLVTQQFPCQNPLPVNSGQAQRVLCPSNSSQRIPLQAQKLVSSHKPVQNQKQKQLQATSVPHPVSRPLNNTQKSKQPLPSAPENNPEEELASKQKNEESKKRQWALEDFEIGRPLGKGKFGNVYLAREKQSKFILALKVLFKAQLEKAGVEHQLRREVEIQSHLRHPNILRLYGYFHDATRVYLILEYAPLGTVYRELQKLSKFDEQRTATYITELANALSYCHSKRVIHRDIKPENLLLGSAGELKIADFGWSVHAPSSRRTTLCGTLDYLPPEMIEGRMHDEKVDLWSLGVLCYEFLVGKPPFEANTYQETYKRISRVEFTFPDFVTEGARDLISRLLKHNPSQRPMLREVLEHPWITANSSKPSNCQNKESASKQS

[2] = target: Aurora kinase B (Homo sapiens) (UniProt Q96GD4); experiment: Inhibition of recombinant full length His-tagged human AURKB expressed in baculovirus expression system using Ser/Thr-01 peptide as substrate at 10 uM incubated for 60 mins in presence of ATP by Z'-LYTE assay
[3] = target: CDC7/DBF4 (Cell division cycle 7-related protein kinase/Activator of S phase kinase) (Homo sapiens, UniProt O00311); experiment: Inhibition of recombinant human CDC7/Dbf4 expressed in baculovirus infected Sf9 insect cells assessed as inhibition of fluorescein labelled substrate phosphorylation in presence of ATP measured after 60 mins by TR-FRET assay
[4] = target: Calcium/calmodulin-dependent protein kinase type 1D (Homo sapiens) (UniProt Q8IU85); experiment: Inhibition of recombinant full length human His-tagged CAMK1delta expressed in baculovirus expression system using serine/threonine-25 peptide as substrate at 10 uM incubated for 60 mins in presence of ATP by Z'-LYTE assay
[5] = target: CDK2/Cyclin A2 (Homo sapiens) (UniProt P24941+P20248); experiment: Inhibition of recombinant full length human His-tagged CDK2/Cyclin A expressed in baculovirus expression system using serine/threonine-12 peptide as substrate at 10 uM incubated for 60 mins in presence of ATP by Z'-LYTE assay
[6] = target: Cyclin-dependent kinase 5/CDK5 activator 1 (Homo sapiens) (UniProt Q00535+Q15078); experiment: Inhibition of recombinant full length human GST/His-tagged CDK5/p35 using serine/threonine-12 peptide as substrate at 10 uM incubated for 60 mins in presence of ATP by Z'-LYTE assay; assay type: protein-complex assay
[7] = target: Casein kinase I isoform epsilon (Homo sapiens) (UniProt P49674); experiment: Inhibition of human CSNK1E expressed in baculovirus expression system using serine/threonine-11 peptide as substrate at 10 uM incubated for 60 mins in presence of ATP by Z'-LYTE assay
[8] = target: Homeodomain-interacting protein kinase 1 (Homo sapiens) (UniProt Q86Z02); experiment: Inhibition of recombinant human full length GST-tagged HIPK1 expressed in baculovirus expression system using serine/threonine-09 peptide as substrate at 10 uM incubated for 60 mins in presence of ATP by Z'-LYTE assay
[9] = target: Tyrosine-protein kinase JAK2 (Homo sapiens) (UniProt O60674); experiment: Inhibition of recombinant human GST-tagged JAK2 expressed in baculovirus expression system using Tyr-06 peptide as substrate at 10 uM incubated for 60 mins in presence of ATP by Z'-LYTE assay
[10] = target: Tyrosine-protein kinase Lck (Homo sapiens) (UniProt P06239); experiment: Inhibition of recombinant human His-tagged LCK expressed in baculovirus expression system using Tyr-02 peptide as substrate at 10 uM incubated for 60 mins in presence of ATP by Z'-LYTE assay
[11] = target: T2, Mitogen-activated protein kinase 13 (Homo sapiens) (UniProt O15264); experiment: Inhibition of recombinant human full length His-tagged MAPK13 expressed in baculovirus expression system using serine/threonine-03 peptide as substrate at 10 uM incubated for 60 mins in presence of ATP by Z'-LYTE assay
T2 sequence (whole entry): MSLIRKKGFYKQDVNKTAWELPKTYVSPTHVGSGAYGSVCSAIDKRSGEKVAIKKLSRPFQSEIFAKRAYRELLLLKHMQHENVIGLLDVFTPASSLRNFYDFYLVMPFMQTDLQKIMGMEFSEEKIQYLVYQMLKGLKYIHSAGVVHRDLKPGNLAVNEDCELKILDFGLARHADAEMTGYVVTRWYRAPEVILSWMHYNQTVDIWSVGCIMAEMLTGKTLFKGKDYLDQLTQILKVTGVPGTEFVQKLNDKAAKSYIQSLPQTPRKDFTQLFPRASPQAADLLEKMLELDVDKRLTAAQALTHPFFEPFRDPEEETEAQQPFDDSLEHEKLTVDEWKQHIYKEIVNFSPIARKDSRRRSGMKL

[12] = target: Mitogen-activated protein kinase 7 (Homo sapiens) (UniProt Q13164); experiment: Inhibition of recombinant human full length GST-tagged MAPK7 expressed in baculovirus expression system using serine/threonine-04 peptide as substrate at 10 uM by Z'-LYTE assay; settings: time 60.0 min
[13] = target: Maternal embryonic leucine zipper kinase (Homo sapiens) (UniProt Q14680); experiment: Inhibition of recombinant human full length GST-tagged MELK expressed in baculovirus expression system using serine/threonine-21 peptide as substrate at 10 uM by Z'-LYTE assay; settings: time 60.0 min
[14] = target: Platelet-derived growth factor receptor alpha (Homo sapiens) (UniProt P16234); experiment: Inhibition of recombinant human GST-tagged PDGFRA expressed in baculovirus expression system using Tyr-04 peptide as substrate at 10 uM by Z'-LYTE assay; settings: time 60.0 min
[15] = target: Serine/threonine-protein kinase pim-3 (Homo sapiens) (UniProt Q86V86); experiment: Inhibition of recombinant human GST-tagged PIM3 expressed in baculovirus expression system using serine/threonine-07 peptide as substrate at 10 uM by Z'-LYTE assay; settings: time 60.0 min
[16] = target: Rho-associated protein kinase 1 (Homo sapiens) (UniProt Q13464); experiment: Inhibition of recombinant human GST-tagged ROCK1 expressed in baculovirus expression system using serine/threonine-07 peptide as substrate at 10 uM by Z'-LYTE assay; settings: time 60.0 min
Chain of Rho-associated protein kinase 1 (Homo sapiens) (Q13464 2-1354 limits assumed): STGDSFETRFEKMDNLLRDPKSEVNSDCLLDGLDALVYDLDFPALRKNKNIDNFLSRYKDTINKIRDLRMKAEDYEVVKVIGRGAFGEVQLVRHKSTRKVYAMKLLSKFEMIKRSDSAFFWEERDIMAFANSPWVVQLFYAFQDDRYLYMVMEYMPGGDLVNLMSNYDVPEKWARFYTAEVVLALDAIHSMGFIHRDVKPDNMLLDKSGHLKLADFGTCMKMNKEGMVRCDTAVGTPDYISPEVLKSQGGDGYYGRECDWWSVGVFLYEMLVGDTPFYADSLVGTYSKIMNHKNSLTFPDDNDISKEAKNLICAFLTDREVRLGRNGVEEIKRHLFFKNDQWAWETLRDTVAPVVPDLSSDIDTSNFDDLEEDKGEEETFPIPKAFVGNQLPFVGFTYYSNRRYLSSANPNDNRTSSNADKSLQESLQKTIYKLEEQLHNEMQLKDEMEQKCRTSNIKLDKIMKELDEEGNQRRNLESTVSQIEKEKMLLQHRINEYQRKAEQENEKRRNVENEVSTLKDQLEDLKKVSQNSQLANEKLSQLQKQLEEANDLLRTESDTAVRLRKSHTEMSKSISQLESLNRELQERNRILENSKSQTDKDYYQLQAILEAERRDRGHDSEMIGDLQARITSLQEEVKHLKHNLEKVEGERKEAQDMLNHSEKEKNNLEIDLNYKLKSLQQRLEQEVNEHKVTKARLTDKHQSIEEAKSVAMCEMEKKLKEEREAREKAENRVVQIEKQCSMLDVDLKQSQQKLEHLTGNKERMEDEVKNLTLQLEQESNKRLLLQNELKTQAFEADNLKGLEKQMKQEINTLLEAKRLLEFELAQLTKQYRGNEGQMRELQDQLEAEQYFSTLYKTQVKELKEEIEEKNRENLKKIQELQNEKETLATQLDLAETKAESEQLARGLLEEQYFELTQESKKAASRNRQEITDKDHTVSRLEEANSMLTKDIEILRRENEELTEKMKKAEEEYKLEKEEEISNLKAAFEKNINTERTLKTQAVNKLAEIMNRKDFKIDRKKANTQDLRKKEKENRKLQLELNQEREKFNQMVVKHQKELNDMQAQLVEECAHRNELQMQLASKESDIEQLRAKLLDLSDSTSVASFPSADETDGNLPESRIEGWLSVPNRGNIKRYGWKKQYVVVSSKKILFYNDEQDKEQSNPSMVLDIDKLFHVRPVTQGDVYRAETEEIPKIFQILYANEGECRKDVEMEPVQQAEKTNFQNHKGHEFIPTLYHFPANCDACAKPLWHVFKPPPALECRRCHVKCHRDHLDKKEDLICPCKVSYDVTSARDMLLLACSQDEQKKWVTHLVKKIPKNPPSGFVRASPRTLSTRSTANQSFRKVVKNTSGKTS

Chain of Aurora kinase B (Homo sapiens) (Q96GD4 whole entry): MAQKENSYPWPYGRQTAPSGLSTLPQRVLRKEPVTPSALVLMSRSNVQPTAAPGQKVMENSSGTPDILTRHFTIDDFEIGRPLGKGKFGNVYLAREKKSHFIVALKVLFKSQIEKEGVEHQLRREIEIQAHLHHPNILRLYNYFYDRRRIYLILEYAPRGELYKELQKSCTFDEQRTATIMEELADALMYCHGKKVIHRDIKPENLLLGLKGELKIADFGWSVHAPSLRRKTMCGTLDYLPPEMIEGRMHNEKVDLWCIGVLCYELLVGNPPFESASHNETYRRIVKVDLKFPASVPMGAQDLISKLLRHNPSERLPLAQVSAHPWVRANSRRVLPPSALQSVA
Chain of CDC7/DBF4 (Cell division cycle 7-related protein kinase/Activator of S phase kinase) (Q9UBU7 whole entry): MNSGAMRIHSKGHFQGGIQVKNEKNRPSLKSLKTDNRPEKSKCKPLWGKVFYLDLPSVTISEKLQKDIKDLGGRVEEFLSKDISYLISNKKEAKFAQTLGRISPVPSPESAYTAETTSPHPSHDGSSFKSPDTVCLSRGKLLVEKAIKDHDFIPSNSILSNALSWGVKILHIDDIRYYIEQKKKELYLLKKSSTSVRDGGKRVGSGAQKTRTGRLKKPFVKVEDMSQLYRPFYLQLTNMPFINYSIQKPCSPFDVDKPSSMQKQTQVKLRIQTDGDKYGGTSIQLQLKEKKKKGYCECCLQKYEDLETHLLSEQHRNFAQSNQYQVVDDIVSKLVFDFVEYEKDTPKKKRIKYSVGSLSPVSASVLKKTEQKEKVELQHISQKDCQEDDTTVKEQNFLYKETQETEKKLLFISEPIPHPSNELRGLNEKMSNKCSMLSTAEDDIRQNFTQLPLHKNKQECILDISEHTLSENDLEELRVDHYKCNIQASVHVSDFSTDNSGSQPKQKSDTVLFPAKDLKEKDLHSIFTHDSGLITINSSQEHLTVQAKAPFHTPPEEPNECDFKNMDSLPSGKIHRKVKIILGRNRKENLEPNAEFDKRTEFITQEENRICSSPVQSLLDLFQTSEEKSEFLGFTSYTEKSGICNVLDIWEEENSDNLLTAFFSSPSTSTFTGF
Chain of CDC7/DBF4 (Cell division cycle 7-related protein kinase/Activator of S phase kinase) (O00311 whole entry): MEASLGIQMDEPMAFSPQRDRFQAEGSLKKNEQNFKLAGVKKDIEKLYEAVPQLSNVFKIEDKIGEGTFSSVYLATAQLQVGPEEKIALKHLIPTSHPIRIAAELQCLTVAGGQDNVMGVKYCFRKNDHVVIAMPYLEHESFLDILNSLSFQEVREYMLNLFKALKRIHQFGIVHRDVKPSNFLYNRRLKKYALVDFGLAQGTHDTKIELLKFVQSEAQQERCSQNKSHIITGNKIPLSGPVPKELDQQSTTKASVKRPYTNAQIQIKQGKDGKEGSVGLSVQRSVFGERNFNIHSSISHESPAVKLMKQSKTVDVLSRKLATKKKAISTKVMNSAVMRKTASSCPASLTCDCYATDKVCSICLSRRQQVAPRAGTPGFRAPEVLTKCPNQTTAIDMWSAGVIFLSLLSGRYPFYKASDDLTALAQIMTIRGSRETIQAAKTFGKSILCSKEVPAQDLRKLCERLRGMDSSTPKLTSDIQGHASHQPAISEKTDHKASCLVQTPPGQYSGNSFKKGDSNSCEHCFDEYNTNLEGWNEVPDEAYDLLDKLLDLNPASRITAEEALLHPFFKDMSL
Chain of Calcium/calmodulin-dependent protein kinase type 1D (Homo sapiens) (Q8IU85 whole entry, looked up): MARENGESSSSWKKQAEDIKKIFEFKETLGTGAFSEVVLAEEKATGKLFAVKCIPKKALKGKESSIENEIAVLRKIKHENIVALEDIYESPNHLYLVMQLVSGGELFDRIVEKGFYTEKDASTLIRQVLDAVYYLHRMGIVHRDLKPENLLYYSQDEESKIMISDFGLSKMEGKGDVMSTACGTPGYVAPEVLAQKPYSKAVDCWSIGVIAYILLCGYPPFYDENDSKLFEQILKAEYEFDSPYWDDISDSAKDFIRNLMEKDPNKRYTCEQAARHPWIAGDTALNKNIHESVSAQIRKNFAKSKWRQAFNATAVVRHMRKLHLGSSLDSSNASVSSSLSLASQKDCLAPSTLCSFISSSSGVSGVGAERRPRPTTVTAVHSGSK
Chain of Casein kinase I isoform epsilon (Homo sapiens) (P49674 whole entry, looked up, canonical isoform): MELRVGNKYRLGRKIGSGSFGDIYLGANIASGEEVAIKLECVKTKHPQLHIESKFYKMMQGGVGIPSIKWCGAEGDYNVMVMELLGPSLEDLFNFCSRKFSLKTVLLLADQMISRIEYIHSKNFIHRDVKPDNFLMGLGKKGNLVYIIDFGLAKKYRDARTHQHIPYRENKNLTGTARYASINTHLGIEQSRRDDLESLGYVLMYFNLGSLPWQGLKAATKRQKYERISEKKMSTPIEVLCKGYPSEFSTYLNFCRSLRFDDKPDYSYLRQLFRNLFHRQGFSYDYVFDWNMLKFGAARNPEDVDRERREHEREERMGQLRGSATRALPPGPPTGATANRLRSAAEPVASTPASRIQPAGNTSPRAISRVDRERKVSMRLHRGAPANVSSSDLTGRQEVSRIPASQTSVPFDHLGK
Chain of Maternal embryonic leucine zipper kinase (Homo sapiens) (Q14680 whole entry, looked up): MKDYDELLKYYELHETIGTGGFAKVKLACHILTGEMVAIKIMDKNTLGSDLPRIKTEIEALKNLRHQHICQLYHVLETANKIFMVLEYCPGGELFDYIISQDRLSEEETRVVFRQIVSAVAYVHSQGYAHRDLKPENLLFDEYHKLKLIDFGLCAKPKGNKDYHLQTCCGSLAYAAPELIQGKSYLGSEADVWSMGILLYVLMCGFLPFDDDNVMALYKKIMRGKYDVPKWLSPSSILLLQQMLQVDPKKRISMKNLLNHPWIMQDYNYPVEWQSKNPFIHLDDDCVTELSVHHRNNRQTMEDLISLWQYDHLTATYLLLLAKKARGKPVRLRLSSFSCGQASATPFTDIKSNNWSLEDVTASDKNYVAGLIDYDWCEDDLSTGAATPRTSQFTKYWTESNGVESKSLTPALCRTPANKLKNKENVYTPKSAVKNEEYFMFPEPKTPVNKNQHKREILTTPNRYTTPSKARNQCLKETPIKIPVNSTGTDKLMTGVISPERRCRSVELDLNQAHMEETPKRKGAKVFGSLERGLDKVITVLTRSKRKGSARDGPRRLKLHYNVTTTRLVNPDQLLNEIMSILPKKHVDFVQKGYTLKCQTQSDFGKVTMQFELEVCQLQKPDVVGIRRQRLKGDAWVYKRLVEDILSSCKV
Chain of Tyrosine-protein kinase Lck (Homo sapiens) (P06239 2-509 limits assumed): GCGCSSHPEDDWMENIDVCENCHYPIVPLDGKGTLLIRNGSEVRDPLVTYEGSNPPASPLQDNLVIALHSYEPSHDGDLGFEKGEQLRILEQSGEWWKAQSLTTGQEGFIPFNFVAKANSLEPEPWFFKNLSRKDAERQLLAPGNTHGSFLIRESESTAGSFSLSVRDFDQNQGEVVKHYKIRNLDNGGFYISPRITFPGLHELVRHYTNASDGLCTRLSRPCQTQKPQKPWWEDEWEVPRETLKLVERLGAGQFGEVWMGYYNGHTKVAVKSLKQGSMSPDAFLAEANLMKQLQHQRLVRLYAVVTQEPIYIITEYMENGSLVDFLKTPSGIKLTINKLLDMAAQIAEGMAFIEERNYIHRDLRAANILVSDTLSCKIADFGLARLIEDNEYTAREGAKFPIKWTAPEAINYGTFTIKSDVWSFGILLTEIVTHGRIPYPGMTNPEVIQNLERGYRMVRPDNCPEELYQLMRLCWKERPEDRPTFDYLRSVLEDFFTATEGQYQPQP

c1ccc(CSc2ncnc3[nH]cnc23)cc1
inhibition [1]: inactive
inhibition [2]: inactive
IC50 [3]: 200 nM
inhibition [4]: inactive
inhibition [5]: inactive
inhibition [6]: inactive
inhibition [7]: inactive
inhibition [8]: inactive
inhibition [9]: inactive
inhibition [10]: inactive
inhibition [11]: inactive
inhibition [12]: inactive
inhibition [13]: inactive
inhibition [14]: inactive
inhibition [15]: inactive
inhibition [16]: inactive

Clc1cccc(CSc2ncnc3[nH]cnc23)c1
inhibition [1]: inactive
inhibition [2]: inactive
IC50 [3]: 140 nM
inhibition [4]: inactive
inhibition [5]: inactive
inhibition [6]: inactive
inhibition [7]: inactive
inhibition [8]: inactive
inhibition [9]: inactive
inhibition [10]: inactive
inhibition [11]: inactive
inhibition [12]: inactive
inhibition [13]: inactive
inhibition [14]: inactive
inhibition [15]: inactive
inhibition [16]: inactive

Brc1ccccc1CSc1ncnc2[nH]cnc12
inhibition [1]: inactive
inhibition [2]: inactive
IC50 [3]: 270 nM
inhibition [4]: inactive
inhibition [5]: inactive
inhibition [6]: inactive
inhibition [7]: inactive
inhibition [8]: inactive
inhibition [9]: inactive
inhibition [10]: inactive
inhibition [11]: inactive
inhibition [12]: inactive
inhibition [13]: inactive
inhibition [14]: inactive
inhibition [15]: inactive
inhibition [16]: inactive
